From patent publication US8471005B2 (Cephalon, Inc., priority 2008, dated 2013)
Read-outs that look alike come from different tables or passages of the source.

Tests used:
ALK = target: T1, ALK (Homo sapiens, UniProt Q9UM73); assay: ALK Kinase Assay (ELISA/TRF, PLC-γ substrate); assay type: biochemical; settings: read-out: ALK Potency
T1 construct: host or cells: baculovirus expression system
Method in brief: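 IC50 values derive from percent inhibition plotted against log10 compound concentration and fitted to a variable-slope sigmoidal equation. The underlying reaction used 30 ng/ml ALK acting on immobilized PLC-γ (10 μg/mL in TBS) at 37° C for 15 minutes, read with Eu-N1 PT66 antibody.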

JAK2 = target: T2, JAK2 (Homo sapiens, UniProt O60674); assay: Recombinant Human JAK2 Kinase Assay (TRF); assay type: biochemical; settings: read-out: JAK2 Potency
T2 construct: host or cells: baculovirus expression system
T2 sequence (O60674 whole entry): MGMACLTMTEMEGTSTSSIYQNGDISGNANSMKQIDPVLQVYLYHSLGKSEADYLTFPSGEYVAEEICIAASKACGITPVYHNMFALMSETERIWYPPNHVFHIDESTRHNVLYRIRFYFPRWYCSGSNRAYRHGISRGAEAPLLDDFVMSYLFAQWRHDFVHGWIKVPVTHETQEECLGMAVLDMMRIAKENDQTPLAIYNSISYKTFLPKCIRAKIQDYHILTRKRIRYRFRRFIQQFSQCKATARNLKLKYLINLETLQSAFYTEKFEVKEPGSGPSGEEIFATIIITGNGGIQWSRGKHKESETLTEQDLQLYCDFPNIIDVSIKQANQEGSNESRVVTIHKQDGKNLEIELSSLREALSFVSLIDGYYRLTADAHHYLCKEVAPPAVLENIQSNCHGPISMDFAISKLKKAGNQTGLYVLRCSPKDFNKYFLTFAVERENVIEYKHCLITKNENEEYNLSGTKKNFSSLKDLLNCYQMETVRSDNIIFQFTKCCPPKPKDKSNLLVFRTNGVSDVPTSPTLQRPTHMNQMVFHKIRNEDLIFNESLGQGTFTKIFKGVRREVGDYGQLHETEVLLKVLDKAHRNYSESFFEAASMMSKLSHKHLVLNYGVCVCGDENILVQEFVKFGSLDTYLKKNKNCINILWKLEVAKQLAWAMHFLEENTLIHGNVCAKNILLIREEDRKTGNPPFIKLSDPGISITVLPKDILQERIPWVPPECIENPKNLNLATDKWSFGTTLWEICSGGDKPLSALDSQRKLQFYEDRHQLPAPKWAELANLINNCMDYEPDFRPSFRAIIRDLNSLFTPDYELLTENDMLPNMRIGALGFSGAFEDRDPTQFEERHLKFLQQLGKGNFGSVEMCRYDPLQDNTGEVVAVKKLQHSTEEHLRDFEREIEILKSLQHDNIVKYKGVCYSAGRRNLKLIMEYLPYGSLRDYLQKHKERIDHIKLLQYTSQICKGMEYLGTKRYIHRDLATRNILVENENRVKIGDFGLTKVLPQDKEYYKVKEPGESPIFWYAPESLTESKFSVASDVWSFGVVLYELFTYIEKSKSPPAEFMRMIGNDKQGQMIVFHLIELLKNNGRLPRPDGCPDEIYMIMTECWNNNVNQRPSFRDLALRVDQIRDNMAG
Method in brief: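 Baculovirus-expressed JAK2 (15 ng/ml) phosphorylated a biotinylated 15-mer peptide captured on Neutravidin, in 20 mM HEPES pH 7.2, 0.2 μM ATP, 1 mM MnCl2, 0.1% BSA, 2.5% DMSO final, 20 min at room temperature. Phosphoproduct detected by time-resolved fluorescence with Eu-N1-labelled PY100 antibody.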

[1] = ALK kinase inhibition, 1 μM ATP
[2] = JAK2 kinase inhibition, 0.2 μM ATP

T1 sequence (Q9UM73 19-1620): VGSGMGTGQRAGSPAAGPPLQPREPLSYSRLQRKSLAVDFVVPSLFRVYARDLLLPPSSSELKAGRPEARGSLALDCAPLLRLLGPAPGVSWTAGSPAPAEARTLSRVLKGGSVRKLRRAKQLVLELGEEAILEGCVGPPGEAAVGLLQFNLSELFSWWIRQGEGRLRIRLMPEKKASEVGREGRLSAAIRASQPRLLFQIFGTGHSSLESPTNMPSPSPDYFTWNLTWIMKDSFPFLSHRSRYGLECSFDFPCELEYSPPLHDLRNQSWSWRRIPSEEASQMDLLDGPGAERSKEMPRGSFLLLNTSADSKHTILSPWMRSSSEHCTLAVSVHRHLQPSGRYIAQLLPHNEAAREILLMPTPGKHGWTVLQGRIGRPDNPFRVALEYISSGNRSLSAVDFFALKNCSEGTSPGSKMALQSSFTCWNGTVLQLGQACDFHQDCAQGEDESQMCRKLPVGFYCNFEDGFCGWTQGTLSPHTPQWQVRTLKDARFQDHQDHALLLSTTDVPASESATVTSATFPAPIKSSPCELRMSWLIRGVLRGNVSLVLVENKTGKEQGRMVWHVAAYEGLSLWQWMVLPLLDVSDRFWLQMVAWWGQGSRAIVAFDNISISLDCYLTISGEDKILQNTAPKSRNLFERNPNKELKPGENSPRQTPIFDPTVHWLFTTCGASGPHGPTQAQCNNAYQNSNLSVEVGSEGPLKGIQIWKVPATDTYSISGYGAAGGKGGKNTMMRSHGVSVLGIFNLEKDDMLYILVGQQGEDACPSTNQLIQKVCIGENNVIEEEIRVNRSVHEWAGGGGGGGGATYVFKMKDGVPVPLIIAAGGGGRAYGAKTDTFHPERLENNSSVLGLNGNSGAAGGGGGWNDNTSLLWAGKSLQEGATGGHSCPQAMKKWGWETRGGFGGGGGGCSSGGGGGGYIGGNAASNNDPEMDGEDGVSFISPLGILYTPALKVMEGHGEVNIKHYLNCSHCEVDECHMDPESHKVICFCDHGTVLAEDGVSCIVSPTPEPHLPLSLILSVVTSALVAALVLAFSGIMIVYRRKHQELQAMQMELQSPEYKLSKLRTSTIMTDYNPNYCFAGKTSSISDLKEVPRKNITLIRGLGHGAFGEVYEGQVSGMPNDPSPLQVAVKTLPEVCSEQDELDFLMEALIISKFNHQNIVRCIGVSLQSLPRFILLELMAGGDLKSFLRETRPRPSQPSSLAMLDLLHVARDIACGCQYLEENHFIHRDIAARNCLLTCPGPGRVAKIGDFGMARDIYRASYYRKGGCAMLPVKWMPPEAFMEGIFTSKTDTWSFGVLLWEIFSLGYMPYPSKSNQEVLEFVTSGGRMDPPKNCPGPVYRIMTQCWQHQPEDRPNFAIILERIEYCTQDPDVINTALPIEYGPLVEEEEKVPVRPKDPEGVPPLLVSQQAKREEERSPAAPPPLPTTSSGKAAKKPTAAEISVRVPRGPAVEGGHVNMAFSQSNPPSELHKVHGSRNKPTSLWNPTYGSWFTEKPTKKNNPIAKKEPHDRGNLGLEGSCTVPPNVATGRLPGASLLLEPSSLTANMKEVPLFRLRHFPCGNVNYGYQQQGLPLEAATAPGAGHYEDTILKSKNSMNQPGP

Structure (SMILES) | IC50 (ALK; ALK Kinase Inhibition) [nM] | IC50 (JAK2; JAK2 Kinase Inhibition) [nM] | IC50 (ALK; [1]) [nM] | IC50 (JAK2; [2]) [nM]
CN1CCN(c2ccc(Nc3ncc4c(-c5ccc(F)cc5)ccn4n3)cc2)CC1 [Example 726, [5-(4-Fluoro-phenyl)-pyrrolo[2,1-f][1,2,4]triazin-2-yl]-[4-(4-methyl-piperazin-1-yl)-phenyl]-amine] | – | – | 1000 to 10000 | > 10000
CC(C)(C)NS(=O)(=O)c1cccc(-c2ccc3cnc(Nc4ccc(CN5CCS(=O)(=O)CC5)cc4)nn23)c1 [Example 1057, N-tert-Butyl-3-{2-[4-(1,1-dioxo-1 $1(6)-thiomorpholin-4-ylmethyl)-phenylamino]-pyrrolo[2,1-f][1,2,4]triazin-7-yl}-benzenesulfonamide] | – | – | 100 to 1000 | < 100
Brc1ccc(Nc2ncc3cc4ccccc4n3n2)cc1 [Example 751, (4-Bromo-phenyl)-[1,2,4]triazino[1,6-a]indol-2-yl-amine] | – | – | > 10000 | > 10000
CN1CCOc2ccc(Nc3ncc4ccc(-c5cccc(S(=O)(=O)NC(C)(C)C)c5)n4n3)cc21 [Example 650, N-tert-Butyl-3-[2-(4-methyl-3,4-dihydro-2H-benzo[1,4]oxazin-6-ylamino)-pyrrolo[2,1-f][1,2,4]triazin-7-yl]-benzenesulfonamide] | – | – | 100 to 1000 | < 100
CC(C)(C)NS(=O)(=O)c1cccc(-c2ccc3cnc(Nc4ccc(C5CCN(CC(N)=O)CC5)cc4)nn23)c1 [Example 1055, 2-(4-{4-[7-(3-tert-Butylsulfamoyl-phenyl)-pyrrolo[2,1-f][1,2,4]triazin-2-ylamino]-phenyl}-piperidin-1-yl)-acetamide] | – | – | 100 to 1000 | < 100
NC(=O)CN1CC(c2ccc(Nc3ncc4ccc(-c5cccc6c5OCC6)n4n3)cc2)C1 [Example 587, 2-(3-{4-[7-(2,3-Dihydro-benzofuran-7-yl)-pyrrolo[2,1-f][1,2,4]triazin-2-ylamino]-phenyl}-azetidin-1-yl)-acetamide] | – | – | < 100 | < 100
COc1ccccc1-c1cc(O)c2cnc(Nc3ccc(C4CCN(CC(N)=O)CC4)cc3)nn12 [Example 1260, 2-(4-{4-[5-Hydroxy-7-(2-methoxy-phenyl)-pyrrolo[2,1-f][1,2,4]triazin-2-ylamino]-phenyl}-piperidin-1-yl)-acetamide] | – | – | 100 to 1000 | < 100
N#Cc1ccc(-c2ccc3cnc(Nc4ccc(N5CCOCC5)cc4)nn23)cn1 [Example 37, 5-[2-(4-Morpholin-4-yl-phenylamino)-pyrrolo[2,1-f][1,2,4]triazin-7-yl]-pyridine-2-carbonitrile] | 1000 to 10000 | < 100 | – | –
COc1cc(C2CCCN(C)C2)ccc1Nc1ncc2ccc(-c3ccccc3OC)n2n1 (centres unmarked) [Example 805, [2-Methoxy-4-(1-methyl-piperidin-3-yl)-phenyl]-[7-(2-methoxy-phenyl)-pyrrolo[2,1-f][1,2,4]triazin-2-yl]-amine] | – | – | < 100 | 100 to 1000
CC(C)(C)NS(=O)(=O)c1cccc(-c2ccc3cnc(Nc4ccc5c(c4)NC(=O)C(C)(C)O5)nn23)c1 [Example 1376, N-tert-Butyl-3-[2-(2,2-dimethyl-3-oxo-3,4-dihydro-2H-1,4-benzoxazin-6-ylamino)-pyrrolo[2,1-f][1,2,4]triazin-7-yl]-benzenesulfonamide] | 1000 to 10000 | < 100 | – | –
COc1cc(-c2ccc3cnc(Nc4ccc(C5CCN(C)CC5)cc4)nn23)ccn1 [Example 676, [7-(2-Methoxy-pyridin-4-yl)-pyrrolo[2,1-f][1,2,4]triazin-2-yl]-[4-(1-methyl-piperidin-4-yl)-phenyl]-amine] | – | – | 100 to 1000 | < 100
COc1cc(C2CCN(CC(N)=O)CC2)ccc1Nc1ncc2c(C)cc(-c3ccccc3N(C)S(C)(=O)=O)n2n1 [Example 1255, 2-[4-(4-{7-[2-(Methanesulfonyl-methyl-amino)-phenyl]-5-methyl-pyrrolo[2,1-f][1,2,4]triazin-2-ylamino}-3-methoxy-phenyl)-piperidin-1-yl]-acetamide] | – | – | < 100 | 100 to 1000
COc1cc(N2CCC(N3CCOCC3)CC2)ccc1Nc1ncc2ccc(-c3ccccc3C(F)(F)F)n2n1 [Example 1464, [2-Methoxy-4-(4-morpholin-4-yl-piperidin-1-yl)-phenyl]-[7-(2-trifluoromethyl-phenyl)-pyrrolo[2,1-f][1,2,4]triazin-2-yl]-amine] | < 100 | 100 to 1000 | – | –
CN1CCN(c2ccc(Nc3ncc4ccc(-c5ccccc5S(=O)(=O)NC(C)(C)C)n4n3)cc2)CC1 [Example 411] | < 100 | < 100 | – | –

Results, then the compound that gave them:

IC50 (ALK; ALK Kinase Inhibition) [nM] | IC50 (JAK2; JAK2 Kinase Inhibition) [nM] | IC50 (ALK; [1]) [nM] | IC50 (JAK2; [2]) [nM] | Structure (SMILES)
< 100 | < 100 | – | – | COc1ccccc1-c1ccc2cnc(Nc3ccc(CN4CCN(C)CC4)cc3)nn12 [Example 353, [7-(2-Methoxy-phenyl)-pyrrolo[2,1-f][1,2,4]triazin-2-yl]-[4-(4-methyl-piperazin-1-ylmethyl)-phenyl]-amine]
< 100 | < 100 | – | – | COc1ccccc1-c1ccc2cnc(Nc3ccc(N4CCCC(C(=O)N5CCN(C)CC5)C4)cc3)nn12 (centres unmarked) [Example 443, (1-{4-[7-(2-Methoxy-phenyl)-pyrrolo[2,1-f][1,2,4]triazin-2-ylamino]-phenyl}-piperidin-3-yl)-(4-methyl-piperazin-1-yl)-methanone]
– | – | 1000 to 10000 | 1000 to 10000 | COc1ccc(CN2CCOCC2)cc1Nc1ncc2ccc(-c3ccccc3N(C)S(C)(=O)=O)n2n1 [Example 498, N-{2-[2-(2-Methoxy-5-morpholin-4-ylmethyl-phenylamino)-pyrrolo[2,1-f][1,2,4]triazin-7-yl]-phenyl}-N-methyl-methanesulfonamide]
< 100 | < 100 | – | – | CN1CCN(C(=O)C2CCN(c3ccc(Nc4ncc5ccc(-c6ccccc6N(C)S(C)(=O)=O)n5n4)cc3)CC2)CC1 [Example 448, N-Methyl-N-[2-(2-{4-[4-(4-methyl-piperazine-1-carbonyl)-piperidin-1-yl]-phenylamino}-pyrrolo[2,1-f][1,2,4]triazin-7-yl)-phenyl]-methanesulfonamide]
1000 to 10000 | < 100 | – | – | O=C(NCCCN1CCOCC1)c1ccc(-c2ccc3cnc(Nc4ccc(N5CCOCC5)cc4)nn23)cc1 [Example 57, 4-[2-(4-Morpholin-4-yl-phenylamino)-pyrrolo[2,1-f][1,2,4]triazin-7-yl]-N-(3-morpholin-4-yl-propyl)-benzamide]
– | – | < 100 | < 100 | CN(c1ccccc1-c1ccc2cnc(Nc3ccc4c(c3)CCCC(=O)N4)nn12)S(C)(=O)=O [Example 623, N-Methyl-N-{2-[2-(2-oxo-2,3,4,5-tetrahydro-1H-benzo[b]azepin-7-ylamino)-pyrrolo[2,1-f][1,2,4]triazin-7-yl]-phenyl}-methanesulfonamide]
< 100 | 100 to 1000 | – | – | COc1cc(N2CCC[C@H](C(=O)N3CCN(C)CC3)C2)ccc1Nc1ncc2ccc(-c3ccccc3OC)n2n1 [Example 461, ((S)-1-{3-Methoxy-4-[7-(2-methoxy-phenyl)-pyrrolo[2,1-f][1,2,4]triazin-2-ylamino]-phenyl}-piperidin-3-yl)-(4-methyl-piperazin-1-yl)-methanone]
– | – | 100 to 1000 | < 100 | Cn1cc(-c2ccc3cnc(Nc4ccc(N5CCC(N6CCOCC6)CC5)cc4)nn23)cn1 [Example 1187, [7-(1-Methyl-1H-pyrazol-4-yl)-pyrrolo[2,1-f][1,2,4]triazin-2-yl]-[4-(4-morpholin-4-yl-piperidin-1-yl)-phenyl]-amine]
< 100 | 1000 to 10000 | – | – | CSc1cc(N2CCN(C[C@H](C)O)CC2)c(F)cc1Nc1ncc2ccc(-c3ccccc3N(C)S(C)(=O)=O)n2n1 [Example 1483, N-[2-(2-{5-Fluoro-4-[4-((S)-2-hydroxy-propyl)-piperazin-1-yl]-2-methylsulfanyl-phenylamino}-pyrrolo[2,1-f][1,2,4]triazin-7-yl)-phenyl]-N-methyl-methanesulfonamide]
100 to 1000 | < 100 | – | – | CN1CCN(c2ccc(Nc3ncc4ccc(-c5ccccc5OCC(=O)N(C)C)n4n3)cc2F)CC1 [Example 1404, 2-(2-{2-[3-Fluoro-4-(4-methyl-piperazin-1-yl)-phenylamino]-pyrrolo[2,1-f][1,2,4]triazin-7-yl}-phenoxy)-N,N-dimethyl-acetamide]
– | – | 100 to 1000 | < 100 | CS(=O)(=O)Nc1cccc(-c2ccc3cnc(Nc4ccc(CN5CCS(=O)(=O)CC5)cc4)nn23)c1 [Example 1052, N-(3-{2-[4-(1,1-Dioxo-1 $1(6)-thiomorpholin-4-ylmethyl)-phenylamino]-pyrrolo[2,1-f][1,2,4]triazin-7-yl}-phenyl)-methanesulfonamide]
– | – | 100 to 1000 | < 100 | CN1CCN(c2ccc(Nc3ncc4ccc(-c5cccc(S(C)(=O)=O)c5)n4n3)cn2)CC1 [Example 1123, [7-(3-Methanesulfonyl-phenyl)-pyrrolo[2,1-f][1,2,4]triazin-2-yl]-[6-(4-methyl-piperazin-1-yl)-pyridin-3-yl]-amine]
– | – | < 100 | < 100 | COc1cc(N2CCC(N3CCCOCC3)CC2)ccc1Nc1ncc2ccc(-c3ccccc3OC)n2n1 [Example 780, [2-Methoxy-4-(4-[1,4]oxazepan-4-yl-piperidin-1-yl)-phenyl]-[7-(2-methoxy-phenyl)-pyrrolo[2,1-f][1,2,4]triazin-2-yl]-amine]
1000 to 10000 | < 100 | – | – | O=C(c1ccccc1)c1ccc2cnc(Nc3ccc(N4CCOCC4)cc3)nn12 [Example 72, [2-(4-Morpholin-4-yl-phenylamino)-pyrrolo[2,1-f][1,2,4]triazin-7-yl]-phenyl-methanone]
